Measured values published in PMC12005307, “A biofilm-targeting lipo-peptoid to treat Pseudomonas aeruginosa and Staphylococcus aureus co-infections” (Biofilm, 2025).
In brackets after ≈: the same amount, converted by molar mass. Like-named read-outs stand apart in the source and are kept apart here.

Columns and labels:
[1] = tested on: P. aeruginosa LESB58; assay: MIC, broth microdilution; type: cell-based; conditions: Pseudomonas aeruginosa
Procedure: (§1) Minimum inhibitory concentrations (MIC) were determined using an adapted broth microdilution method in Greiner bio flat chimney polypropylene 96-well plates. P. aeruginosa was used at 1 × 10^6 CFU/mL and S. aureus at 5 × 10^6 CFU/mL in MHB (Oxoid) and DFG, respectively. A separate polypropylene plate was used to prepare two-fold peptoid dilutions in PBS pH 7.5 (Gibco). Bacterial growth was determined by visible turbidity after incubation at 37 °C for 16 h (S. aureus) or 24 h (P. aeruginosa). MIC values were determined as the lowest concentration of the drug where no bacterial growth was visible. Metabolic activity (color change from blue to pink) was further determined by adding the metabolic dye PrestoBlue™ (Invitrogen) to each well for 30 min as confirmation of visual determination. All tests were performed in triplicate.

[2] = tested on: S. aureus USA300 LAC; assay: MIC, broth microdilution; type: cell-based; conditions: Staphylococcus aureus, Table S6, antibiotic screen, medium not given
Procedure: as §1

[3] = tested on: S. aureus USA300 LAC; assay: Checkerboard titration assay (in vitro synergy); type: cell-based, Staphylococcus aureus; conditions: DFG; for Fold decrease in TM18 MIC: TM18 in combination with the named antibiotic; for Fold decrease in TM18 MIC / FICI, antibiotic combination with TM18: checkerboard; for Fold decrease in antibiotic MIC: antibiotic in combination with TM18, checkerboard; for FICI, antibiotic combination with TM18: 1 × 10^6 CFU/mL, 37 °C, 16–24 h, >0.5 and <=1 additive
Procedure: (§2) Each compound was serially diluted in PBS before transferring to a 96-well plate containing 1 × 10^6 CFU/mL P. aeruginosa or S. aureus, respectively, in DFG medium and incubated at 37 °C for 16–24 h. The MIC or combinatorial effect was determined as the lowest concentration with no visible growth and the fractional inhibitory concentration index (FICI) was calculated as [(MICA in combination)/MICA] + [(MICB in combination)/MICB] as previously. FICIs ≤ 0.5 indicate synergy, 0.5–1 indicate additivity and values above 1 indicate indifference or antagonism.

[4] = tested on: P. aeruginosa LESB58; assay: Checkerboard titration assay (in vitro synergy); type: cell-based, Pseudomonas aeruginosa; conditions: DFG; for Fold decrease in TM18 MIC: TM18 in combination with the named antibiotic; for Fold decrease in TM18 MIC / FICI, antibiotic combination with TM18: checkerboard; for Fold decrease in antibiotic MIC: antibiotic in combination with TM18, checkerboard; for FICI, antibiotic combination with TM18: 1 × 10^6 CFU/mL, 37 °C, 16–24 h, >0.5 and <=1 additive
Procedure: as §2

[5] = tested on: P. aeruginosa LESB58 and S. aureus USA300 LAC; assay: Murine skin abscess model, co-infection, abscess size; type: in vivo, Pseudomonas aeruginosa and Staphylococcus aureus; conditions: 2.5 × 10^7 CFU of each species s.c., 5 mg/kg of each agent intra-abscess after 1 h
Procedure: (§3) The abscess model was performed as described previously for mono-species infections and modified as follows for dual-species infection. P. aeruginosa and S. aureus were grown individually to an OD600 of 1.0 in dYT broth. Bacterial cells were washed twice in PBS pH 7.4 (Gibco) and resuspended to an OD600 of 2.0 for S. aureus (∼2.5 × 10^7) and 1.0 for P. aeruginosa (∼2.5 × 10^7). For co-infections, P. aeruginosa and S. aureus were mixed (1:1) immediately before injecting 50 μL subcutaneously into the right side of the dorsum. TM1, TM14, TM18, or sterile PBS were injected directly into the infected area 1-h post-infection at a concentration of 5 mg/kg which was the highest concentration determined as non-toxic in our murine model (Table S10). The progression of the infection was monitored daily. A caliper was used to measure the abscess lesion size manually. The SilhouetteStar™ 3D wound camera and SilhouetteConnect™ software were used to photograph, measure, and analyze abscess lesion sizes (visible dermonecrosis). The skin abscesses (including accumulated pus) were excised and homogenized in sterile PBS using SPEX®SamplePrep 1600 MiniG™ for 5 min. […]
(§4) In vitro experiments were performed with at least three biological replicates. […] The predicted additive effect (PAE) was determined by calculating the sum of CFU log reduction for each individual treatment. […]

[6] = tested on: S. aureus USA300 LAC; assay: Murine skin abscess model, co-infection, S. aureus survivors; type: in vivo, Staphylococcus aureus; conditions: 5 mg/kg intra-abscess after 1 h, day 3, CFU on selective agar
Procedure: as §3, §4

[7] = tested on: P. aeruginosa LESB58; assay: Murine skin abscess model, co-infection, P. aeruginosa survivors; type: in vivo, Pseudomonas aeruginosa; conditions: 5 mg/kg intra-abscess after 1 h, day 3, CFU on selective agar
Procedure: as §3, §4

[8] = Table S6, antibiotic screen, medium not given, read-out: MIC

SMILES	MIC [1, 8]	MIC [2]	Fold decrease in TM18 MIC [3]	Fold decrease in antibiotic MIC [3]	FICI, antibiotic combination with TM18 [3]	Fold decrease in TM18 MIC [4]	Fold decrease in antibiotic MIC [4]	FICI, antibiotic combination with TM18 [4]	reduction of abscess sizes ([5]; day 3)	reduction of abscess sizes ([5]; day 3, listed as Meropenem)	reduction of S. aureus survivors [6]	MIC [1]	reduction of P. aeruginosa survivors [7]
NC[C@H]1O[C@H](O[C@H]2[C@H](O)[C@@H](O[C@H]3O[C@H](CO)[C@@H](O)[C@H](N)[C@H]3O)[C@H](N)C[C@@H]2N)[C@H](N)C[C@@H]1O [tobramycin]	1.56 µg/mL (≈ 3.34 µM)	0.78 µg/mL (≈ 1.67 µM)	1 fold	1 fold	1	2 fold	2 fold	1					
CNC(C)C1CCC(N)C(OC2C(N)CC(N)C(OC3OCC(C)(O)C(NC)C3O)C2O)O1 (stereo not shown) [GEN, gentamicin]	7.81 µg/mL (≈ 16.4 µM)	0.78 µg/mL (≈ 1.63 µM)	1 fold	2 fold	1	1 fold	2 fold	1					
C[C@@H](O)[C@H]1C(=O)N2C(C(=O)O)=C(S[C@@H]3CN[C@H](C(=O)N(C)C)C3)[C@H](C)[C@H]12 [meropenem]		0.78 µg/mL (≈ 2.03 µM)	2 fold	4 fold	0.75	2 fold	2 fold	1	78%	85%	~10 fold	1.56 µg/mL (≈ 4.07 µM)	~100 fold
O=C(O)c1cn(C2CC2)c2cc(N3CCNCC3)c(F)cc2c1=O [CIP, ciprofloxacin]	3.13 µg/mL (≈ 9.45 µM)	15.6 µg/mL (≈ 47.2 µM)	4 fold	2 fold	0.75	1 fold	2 fold	1					
CC(C)(O/N=C(\C(=O)N[C@@H]1C(=O)N2C(C(=O)[O-])=C(C[n+]3ccccc3)CS[C@H]12)c1csc(N)n1)C(=O)O [CAZ, ceftazidime]	12.5 µg/mL (≈ 22.9 µM)	31.2 µg/mL (≈ 57.2 µM)	1 fold	1 fold	1	2 fold	4 fold	0.75					
CC[C@H]1OC(=O)[C@H](C)[C@@H](O[C@H]2C[C@@](C)(OC)[C@@H](O)[C@H](C)O2)[C@H](C)[C@@H](O[C@@H]2O[C@H](C)C[C@H](N(C)C)[C@H]2O)[C@](C)(O)C[C@@H](C)CN(C)[C@H](C)[C@@H](O)[C@]1(C)O [AZM, azithromycin]	25 µg/mL (≈ 33.4 µM)	125 µg/mL (≈ 167 µM)	1 fold	1 fold	1	8 fold	2 fold	0.625					
